How the values were obtained:
[1] = cited from earlier work
[2] = tested on: P. paneum; experiment: Accelerated shelf-life testing (ASLT): time of appearance (TOA) and growth pattern of mould on inoculated breadcrumbs; type: cell-based, Penicillium paneum; conditions: Example 1, tin breads, ±500 spores, around 21 °C; CalPro 0.3% FWB, chitosan 1% FWB (about 1 wt.%)
[3] = tested on: A. niger; experiment: Accelerated shelf-life testing (ASLT): time of appearance (TOA) of mould on inoculated breadcrumbs
Procedure: Breads were made by mixing the dough ingredients from Table 1. The wt.% for several ingredients are given based on flour weight (Flour Weight Based, FWB). For the prepared recipes the difference with total dry weight is insubstantial. The following breads were prepared: a control without any preservatives, a reference containing 0.3% flour weight based (FWB) calcium propionate (CalPro), and a bread containing 1% chitosan (KitoZyme, Belgium) with number average MW of 15 kDa and degree of deacetylation (DDA) of 70%. […] Ingredients were mixed using a spiral mixer for 10 minutes. Afterwards the dough for each trial was divided into three pieces of 520 g, rounded manually, and placed into bread tins. The dough pieces were placed in a proofing cabinet to rise at 40 °C and 80% relative humidity until they reach similar height (fermentation time between 60-70 min). The breads were baked for 22 minutes in a deck oven at 260 (bottom) and 230 (top) °C.
Following baking, the breads were cooled in a HEPA-filtered chamber for 90 min. One bread was used for pH measurement and two breads were subjected to ASLT.
To perform ASLT, the remaining two breads were sliced to 13 mm slices. The crumb (inner part of breads) of three random slices from each bread were cut out using a cookie cutter (3.2 cm diameter) and placed in sterile 6-well plates (2x breads × 3 slices). Two 6-well plates were prepared per bread type. Each bread piece in a 6-well plate was inoculated with 3 aliquots of ±500 spores (20 pL) of either A. niger or P. paneum. Therefore, 18 spots of each mould were inoculated per trial (6 bread piece × 3 aliquots). Freeze-dried spores were used in all experiments. The inoculated breads incubated at room temperature of around 21 °C untill visible mould appearance. The appearance of the moulds was imaged by taking photographs. The images were inspected visually, and the TOA was defined as mould appearance in hours after mould inoculation.
Due to limited availability of the high MW chitosan samples, ASLT was performed at small scale in bread rolls. […]

| Compound | pKa [1] | increased TOA of P. paneum compared to control bread without preservatives [2] [%] | effectiveness against A. niger, CalPro compared to chitosan ([3]; CalPro 0.3% FWB vs chitosan 1% FWB) | TOA of A. niger improved compared to control without preservative ([3]; CalPro 0.3% FWB, FWF 0.78% FWB, chitosan >0.5 wt.%, alone or in combination) | increased TOA of A. niger compared to control bread without preservatives ([3]; Example 1, tin breads, ±500 spores, around 21 °C, CalPro 0.3% FWB, chitosan 1% FWB (about 1 wt.%)) [%] |
| --- | --- | --- | --- | --- | --- |
| CC(O)C(=O)O (stereo not drawn) [lactic acid] | about 3.85 | – | – | – | – |
| C/C=C/C=C/C(=O)O [sorbic acid] | about 4.76 | – | – | – | – |
| CCC(=O)[O-].CCC(=O)[O-].[Ca+2] [CalPro, calcium propionate] | – | 17 | more effective | approximately 50% | 80 |

— patent EP4516108A1, “METHOD FOR PRESERVING A BAKERY PRODUCT USING CHITOSAN AS INGREDIENT” (Mauri Technology B.V., priority 2023, dated 2025)
